Data published in US8975397B2, “Solid forms” (Hoffmann-La Roche Inc., priority 2011, dated 2015).
Values after ≈ are worked out from the molar mass of the structure shown. “Also recorded” adds a separate entry of the source. Where two headings read alike, the source gives them in different places. Each block holds one molecule with its values, some of them ahead of it.

Experiments:
[1] = Temperature Controlled XRPD / heating: solid form change; type: physicochemical; conditions: for solid form changes at elevated temperature: Temperature Controlled XRPD
Description: Temperature Controlled XRPD analyses of Form B show a phase transition to Form A at elevated temperature. In the temperature range 105-135° C. only Form A is present. In the temperature range of 65-95° C. an intermediate state is observed that is characterized by significant changes in peak positions.

[2] = Thermodynamic stability of polymorphs; type: physicochemical
Source text: The term “monotropy” denotes the relationship between two or more crystal forms of the same substance in which the rank order of thermodynamic stabilities of the polymorphs is retained at all temperatures below the melting point.

[3] = Solid form stability towards humidity and water (storage, Humidity Controlled XRPD); conditions: for relative humidity at which Form B dehydrates into Form E: storage / Humidity Controlled XRPD, monohydrate; for phase change upon storage at 100% rH: ambient temperature (Form C: e.g. 30 days)
Description: Humidity Controlled XRPD analyses were performed in reflection geometry with a Siemens D5000 Diffractometer (Cu radiation source, NiK beta filter, Scintillation detector, angular range 3° to 42° 2Theta, approximately 180 minutes total measurement time per humidity level). The diffractometer is equipped with an MR1 (Materials Research Instruments) humidity chamber. The humidity within the chamber is adjusted with an ANSYCO humidity controller (SYCOS H-HOT).
50 mg of Form B was subjected to dehydration/hydration cycles.

[4] = Hygroscopicity (European Pharmacopoeia classification); type: physicochemical; conditions: for hygroscopicity: mass increase 0% rH to 90% rH
Source text: The term “hygroscopicity” describes the ability of a solid material to adsorb moisture. The hygroscopicity of a given API is characterized [European Pharmacopoeia—6th Edition (2008), Chapter 5.11) by the increase in mass when the relative humidity is raised from 0% rH to 90% rH: • non-hygroscopic: weight increase Δm<0.2%; • slightly hygroscopic: weight increase 0.2%≦Δm<2.0%; • hygroscopic: weight increase 2.0%≦Δm<15.0%; • very hygroscopic: weight increase Δm≧15.0%; • deliquescent: sufficient water is adsorbed to form a liquid.

[5] = In vitro dissolution in miniaturized system (SGF, FeSSIF); type: physicochemical; conditions: comparison with Form B
Description: FIG. 21 illustrates the mean in vitro dissolution profiles in SGF. Mean in vitro dissolution profiles of micronized powders of Form A (∘), Form B (▾), Form C (▪) and γ-CD inclusion complex (Δ) in SGF at room temperature. Measurements were performed in triplicate (n=3).
FIG. 22 illustrates the mean in vitro dissolution profiles in FeSSIF. Mean in vitro dissolution profiles of micronized powders of Form A (∘), Form B (▾), Form C (▪) and γ-CD inclusion complex (Δ) in FeSSIF at room temperature. Measurements were performed in triplicate (n=3).
The in vitro dissolution studies performed in this work were conducted in a miniaturized system with 100 mL dissolution medium per experiment. In comparison to the 1000 mL vessels of the conventional USP apparatus the experimental set-up that was used here was scaled-down and simplified (magnetic stirring instead of paddles, room temperature instead of 37° C.). […] Simulated gastric fluid (SGF) was prepared with 2 g/L NaCl and 1 g/L Triton® X-100 in 0.1 N HCl. The resulting measured pH of SGF was 1.2.
Oral absorption of a drug compound from a solid dosage form is dependent on dissolution rate and solubility. In the present work the in vitro dissolution of the γ-CD inclusion complex was compared to micronized powders of polymorph Form A, Form B and Form C. […]

[6] = Source text: FIG. 20 illustrates the phase solubility diagram of (1,1-dioxo-1λ^6-thiomorpholin-4-yl)-{6-[3-(4-fluoro-phenyl)-5-methyl-isoxazol-4-ylmethoxy]-pyridin-3-yl}-methanone and γ-CD. The API solubility is shown in [μg/mL].
Phase solubility diagrams are used to characterize complex formation between two compounds and represent the solubility of the API as a function of the cyclodextrin concentration. […] Anal. Chem. Instrum. (1965) 4:117-212] and Brewster [M E. Brewster et al. Adv. Drug Delivery Rev. (2007) 59:645-666] (FIG. 20).
Anal. Chem. Instrum. (1965) 4:117-212]:
[formula] […] The binding constant (K) is a measure of the affinity of the API to enter the relatively apolar cavity of the CD.

[7] = Biopharmaceutical classification system (BCS); type: physicochemical
Source text: The compound of formula (I), its manufacture, its pharmacological activity as inverse agonists of the GABA A α5 receptor, and its use for the treatment, prevention and/or delay of progression of various central nervous system (CNS) conditions have been described in WO 2009/071476. […] Res. (1995) 12:413-420].

[8] = Temperature Controlled XRPD of Form B

SMILES: Cc1onc(-c2ccc(F)cc2)c1COc1ccc(C(=O)N2CCS(=O)(=O)CC2)cn1 [Form A, (1,1-dioxo-1λ^6-thiomorpholin-4-yl)-{6-[3-(4-fluoro-phenyl)-5-methyl-isoxazol-4-ylmethoxy]-pyridin-3-yl}-methanone]
- solid form changes at elevated temperature [1]: do not show solid form changes
- thermodynamic stability of the polymorph [2]: metastable
- thermodynamic stability of the polymorph ([2]; listed as form A): only metastable

SMILES: Cc1onc(-c2ccc(F)cc2)c1COc1ccc(C(=O)N2CCS(=O)(=O)CC2)cn1 [Form B, (1,1-dioxo-1λ^6-thiomorpholin-4-yl)-{6-[3-(4-fluoro-phenyl)-5-methyl-isoxazol-4-ylmethoxy]-pyridin-3-yl}-methanone monohydrate]
- stability in the presence of humidity ([3]; e.g. at ambient conditions, compared to Form A): substantially increased as compared to Form A
- relative humidity at which Form B dehydrates into Form E ([3]; listed as form B): 0 % rH
- relative humidity at which Form B dehydrates into Form E [3]: < 5 % rH
- temperature range in which an intermediate state is observed [1, 8]: 65-95 °C
- temperature range in which only Form A is present [1, 8]: 105-135 °C
- temperature of transformation into Form A upon heating ([1]; heating): > 100 °C
- hygroscopicity ([4]; monohydrate): hygroscopic (weight increase 2.0%≦Δm<15.0%)

SMILES: Cc1onc(-c2ccc(F)cc2)c1COc1ccc(C(=O)N2CCS(=O)(=O)CC2)cn1 [Form C, (1,1-dioxo-1λ^6-thiomorpholin-4-yl)-{6-[3-(4-fluoro-phenyl)-5-methyl-isoxazol-4-ylmethoxy]-pyridin-3-yl}-methanone]
- phase change upon storage at 100% rH [3]: does not induce this phase change
- phase change in the presence of water ([3]; suspended state): transforms into Form B
- solid form changes at elevated temperature [1]: do not show solid form changes
- hygroscopicity compared to Form A ([4]; comparison): less hygroscopic than Form A
- thermodynamic stability of the polymorph [2]: more stable than Form A; also recorded: most stable polymorph overall
- solubility in simulated gastric fluid (SGF) [5]: considerably improved as compared to Form B

SMILES: Cc1onc(-c2ccc(F)cc2)c1COc1ccc(C(=O)N2CCS(=O)(=O)CC2)cn1 [amorphous Form, (1,1-dioxo-1λ^6-thiomorpholin-4-yl)-{6-[3-(4-fluoro-phenyl)-5-methyl-isoxazol-4-ylmethoxy]-pyridin-3-yl}-methanone]
- phase change upon storage at 100% rH [3]: no phase transformation has been observed
- hygroscopicity [4]: slightly hygroscopic (weight increase 0.2%≦Δm<2.0%)

More lines, now with the values ahead:

- relative humidity at which Form E reconverts (rehydrates) into Form B ([3]; exposure to humidity): > 5 % rH
SMILES: Cc1onc(-c2ccc(F)cc2)c1COc1ccc(C(=O)N2CCS(=O)(=O)CC2)cn1 [Form E, (1,1-dioxo-1λ^6-thiomorpholin-4-yl)-{6-[3-(4-fluoro-phenyl)-5-methyl-isoxazol-4-ylmethoxy]-pyridin-3-yl}-methanone]

- phase solubility diagram type [6]: BS-type behavior
- aqueous solubility ([7]; BCS): low
- permeability ([7]; BCS): high
- BCS class ([7]; biopharmaceutical classification system): BCS 2
SMILES: Cc1onc(-c2ccc(F)cc2)c1COc1ccc(C(=O)N2CCS(=O)(=O)CC2)cn1 [compound of formula (I), (1,1-Dioxo-1λ^6-thiomorpholin-4-yl)-{6-[3-(4-fluoro-phenyl)-5-methyl-isoxazol-4-ylmethoxy]-pyridin-3-yl}-methanone]

- solubility limit in aqueous solution [6]: 150 mM (≈ 195 mg/mL)
SMILES: OC[C@H]1O[C@@H]2O[C@H]3[C@H](O)[C@@H](O)[C@@H](O[C@H]4[C@H](O)[C@@H](O)[C@@H](O[C@H]5[C@H](O)[C@@H](O)[C@@H](O[C@H]6[C@H](O)[C@@H](O)[C@@H](O[C@H]7[C@H](O)[C@@H](O)[C@@H](O[C@H]8[C@H](O)[C@@H](O)[C@@H](O[C@H]9[C@H](O)[C@@H](O)[C@@H](O[C@H]1[C@H](O)[C@H]2O)O[C@@H]9CO)O[C@@H]8CO)O[C@@H]7CO)O[C@@H]6CO)O[C@@H]5CO)O[C@@H]4CO)O[C@@H]3CO [γ-cyclodextrin]
